Test results reported in paper PMC4802617 (Chinese Medicine, 2016).
Several values for one entry are separate records, joined by “and”; a condition that tells them apart may be missing. Equal values may be shown once. Entries after “also recorded” stand apart in the source; their conditions may differ. Where a name gives a salt, the structure may show the parent alone. Read-outs that look alike come from different tables or passages of the source.

Experiments:
CYP2E1 [1] = target: T1, CYP2E1 (Homo sapiens, UniProt P05181); details: CYP2E1 ref 28; read-out: Ki, specific inhibitor/reported values; cited from earlier work
T1 construct: tissue Cypex Ltd. (UK); host or cells: pooled human liver microsomes, ten donors
T1 sequence (P05181 whole entry): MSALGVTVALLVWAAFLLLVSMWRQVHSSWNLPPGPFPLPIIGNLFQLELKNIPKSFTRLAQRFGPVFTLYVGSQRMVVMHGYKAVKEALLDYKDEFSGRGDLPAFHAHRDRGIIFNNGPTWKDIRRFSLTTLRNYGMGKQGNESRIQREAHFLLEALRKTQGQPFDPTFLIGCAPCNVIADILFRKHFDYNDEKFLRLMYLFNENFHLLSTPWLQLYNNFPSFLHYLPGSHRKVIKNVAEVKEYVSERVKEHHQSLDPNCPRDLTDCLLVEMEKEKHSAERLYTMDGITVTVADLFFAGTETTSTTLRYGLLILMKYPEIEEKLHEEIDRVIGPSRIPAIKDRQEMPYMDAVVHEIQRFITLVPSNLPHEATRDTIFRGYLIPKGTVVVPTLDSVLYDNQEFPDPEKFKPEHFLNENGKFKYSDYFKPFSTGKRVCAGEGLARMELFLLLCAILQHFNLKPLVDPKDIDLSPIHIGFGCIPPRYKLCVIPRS

human CYP1A2 isoform = details: specific human CYP1A2 isoform, competitive ref 32; cited from earlier work
CYP2C9 [2] = target: T2, CYP2C9 (Homo sapiens, UniProt P11712); details: cited from earlier work
T2 construct: tissue Cypex Ltd. (UK); host or cells: pooled human liver microsomes, ten donors
T2 sequence (P11712 whole entry): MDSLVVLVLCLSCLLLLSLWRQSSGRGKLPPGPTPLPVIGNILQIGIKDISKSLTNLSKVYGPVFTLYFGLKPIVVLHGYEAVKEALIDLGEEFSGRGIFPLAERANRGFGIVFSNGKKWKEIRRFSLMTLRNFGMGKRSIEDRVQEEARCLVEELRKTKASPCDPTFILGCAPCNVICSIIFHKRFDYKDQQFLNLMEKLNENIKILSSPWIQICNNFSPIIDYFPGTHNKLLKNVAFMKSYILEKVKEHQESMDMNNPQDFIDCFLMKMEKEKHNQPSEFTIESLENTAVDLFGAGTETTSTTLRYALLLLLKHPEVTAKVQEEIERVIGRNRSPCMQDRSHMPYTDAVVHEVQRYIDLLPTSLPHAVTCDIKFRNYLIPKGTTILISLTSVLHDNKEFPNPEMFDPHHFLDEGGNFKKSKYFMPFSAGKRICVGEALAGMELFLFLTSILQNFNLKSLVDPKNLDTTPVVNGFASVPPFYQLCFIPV

CYP1A2 [3] = target: T3, CYP1A2 (Homo sapiens, UniProt P05177); design: tissue Cypex Ltd. (UK); host or cells: pooled human liver microsomes, ten donors; details: CYP1A2, pooled HLMs, competitive ref 32; cited from earlier work
T3 sequence (P05177 1-516): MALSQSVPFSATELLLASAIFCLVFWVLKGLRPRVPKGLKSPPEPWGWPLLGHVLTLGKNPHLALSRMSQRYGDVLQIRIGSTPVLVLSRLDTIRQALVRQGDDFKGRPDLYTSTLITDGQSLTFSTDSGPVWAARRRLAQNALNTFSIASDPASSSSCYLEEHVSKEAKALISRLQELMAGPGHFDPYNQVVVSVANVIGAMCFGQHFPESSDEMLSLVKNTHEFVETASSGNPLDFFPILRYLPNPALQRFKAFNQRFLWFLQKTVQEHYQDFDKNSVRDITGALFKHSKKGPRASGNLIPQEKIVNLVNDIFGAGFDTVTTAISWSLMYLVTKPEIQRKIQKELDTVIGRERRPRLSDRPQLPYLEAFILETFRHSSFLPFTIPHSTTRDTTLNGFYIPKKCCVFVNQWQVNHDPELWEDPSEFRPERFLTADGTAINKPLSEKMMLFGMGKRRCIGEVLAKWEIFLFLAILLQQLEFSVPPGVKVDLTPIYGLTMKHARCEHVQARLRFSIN

CYP2C19 = target: T4, CYP2C19 (Homo sapiens, UniProt P33261); assay: Inhibition of S-mephenytoin 4-hydroxylation in HLMs; assay type: in vitro ADME
T4 construct: tissue Cypex Ltd. (UK); host or cells: pooled human liver microsomes, ten donors
T4 sequence (P33261 whole entry): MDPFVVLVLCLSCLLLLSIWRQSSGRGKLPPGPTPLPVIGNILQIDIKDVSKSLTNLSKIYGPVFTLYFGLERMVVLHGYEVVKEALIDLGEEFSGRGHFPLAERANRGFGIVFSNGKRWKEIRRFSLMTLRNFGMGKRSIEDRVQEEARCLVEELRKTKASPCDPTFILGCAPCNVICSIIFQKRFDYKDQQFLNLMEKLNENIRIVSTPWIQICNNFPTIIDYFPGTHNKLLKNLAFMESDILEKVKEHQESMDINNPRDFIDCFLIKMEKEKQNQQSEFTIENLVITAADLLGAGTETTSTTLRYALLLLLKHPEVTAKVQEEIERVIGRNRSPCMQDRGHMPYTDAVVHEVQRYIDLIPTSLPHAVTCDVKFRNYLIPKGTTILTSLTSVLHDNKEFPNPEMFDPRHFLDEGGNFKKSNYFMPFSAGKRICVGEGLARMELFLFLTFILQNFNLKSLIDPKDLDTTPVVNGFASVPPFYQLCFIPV
Procedure: (§1) The CYP isoform-specific probe reactions used were phenacetin O-deethylation (for CYP1A2), coumarin 7-hydroxylation (for CYP2A6), tolbutamide 4-hydroxylation (for CYP2C9), metoprolol α-hydroxylation (for CYP2D6), chlorzoxazone 6-hydroxylation (for CYP2E1), S-mephenytoin 4-hydroxylation (for CYP2C19), and midazolam 1-hydroxylation (for CYP3A4). […] Each reaction was initiated by addition of 1 mg/mL NADPH. The final incubations were performed in a shaking water bath at 37 °C for 30 min. The incubations were performed in triple, and the incubation conditions specific to each CYP isoform were within the linear range for the velocity of the reaction (incubation time as well as substrate and protein concentrations). […] The reactions were stopped by adding 0.2 mL of ice-cold acetonitrile containing irbesartan (114.9 ng/mL) as the internal standard. The samples were vortexed for 5 min. After centrifugation (5415D centrifuge, Eppendorf, Germany) (12,000×g for 10 min), the supernatants were transferred and aliquots of 20 µL were injected into the HPLC–MS/MS system for analysis.
(§2) A pilot inhibitory analysis of each CYP isoform was performed to determine the potency of inhibition and to select CYP isoforms for further detailed study of their inhibitory activities. […] The substrates comprising phenacetin, coumarin, tolbutamide, metoprolol, chlorzoxazone, S-mephenytoin, and midazolam were employed at concentrations of 10, 5, 100, 7.5, 40, 100, and 5 µM, respectively. All incubation conditions were the same as those described above.
(§3) Values of P < 0.05 denoted significance in all cases. […] The activity of each CYP isoform was calculated by the MCR of its corresponding probe substrate to determine the inhibition of the CYP isoforms. […] The IC50 values were determined by analyzing the plot of the logarithm of the inhibitor concentration versus the percentage of activity remaining after inhibition, using the SPSS for Windows Version 11.5 (SPSS Inc., USA). […]

CYP2C9 [4] = target: T2, CYP2C9; assay: Inhibition of tolbutamide 4-hydroxylation in HLMs; assay type: in vitro ADME
Procedure: as §1, §2, §3

[5] = rats, cited from earlier work
CYP3A4 [6] = target: T5, CYP3A4 (Homo sapiens, UniProt P08684); assay: Inhibition of midazolam 1-hydroxylation in HLMs (IC50, Ki, Dixon plots); assay type: in vitro ADME; design: tissue Cypex Ltd. (UK); host or cells: pooled human liver microsomes, ten donors
T5 sequence (P08684 whole entry): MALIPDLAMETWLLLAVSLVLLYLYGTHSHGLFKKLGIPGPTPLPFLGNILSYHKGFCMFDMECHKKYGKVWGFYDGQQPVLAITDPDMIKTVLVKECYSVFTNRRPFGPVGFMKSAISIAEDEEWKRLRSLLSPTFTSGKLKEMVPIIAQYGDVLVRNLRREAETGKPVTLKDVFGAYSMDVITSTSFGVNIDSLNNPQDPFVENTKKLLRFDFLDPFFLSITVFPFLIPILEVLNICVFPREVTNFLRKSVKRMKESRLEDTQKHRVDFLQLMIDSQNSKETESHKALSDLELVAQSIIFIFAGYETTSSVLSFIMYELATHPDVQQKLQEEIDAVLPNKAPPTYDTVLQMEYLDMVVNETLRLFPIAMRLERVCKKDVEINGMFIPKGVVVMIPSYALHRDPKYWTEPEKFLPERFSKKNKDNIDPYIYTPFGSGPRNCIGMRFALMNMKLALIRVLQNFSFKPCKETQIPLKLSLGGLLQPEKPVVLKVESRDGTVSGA
Procedure: as §1, §2
Therefore, Dixon plots for the inhibition of CYP3A4 were determined by incubating the substrate probe at multiple concentrations with or without the test inhibitor at multiple concentrations with the HLMs and cofactors. The inhibition data obtained from the pilot experiments were used as a guide to generate appropriate probe substrate and test inhibitor concentrations for determination of the Ki values for each CYP isoform. The isoform-specific probe substrate concentrations used were 5–50 µM midazolam for CYP3A4.
(§4) Values of P < 0.05 denoted significance in all cases. […] The activity of each CYP isoform was calculated by the MCR of its corresponding probe substrate to determine the inhibition of the CYP isoforms. […] The IC50 values were determined by analyzing the plot of the logarithm of the inhibitor concentration versus the percentage of activity remaining after inhibition, using the SPSS for Windows Version 11.5 (SPSS Inc., USA). The inhibition data were fitted to different models of enzyme inhibition (competitive, noncompetitive, and uncompetitive) by nonlinear least-squares regression analysis using GraphPad Prism 5 software (GraphPad Co. Ltd., USA) to calculate the Ki values.

CYP1A2 [7] = target: T3, CYP1A2; assay: Inhibition of phenacetin O-deethylation in HLMs; assay type: in vitro ADME; design: tissue Cypex Ltd. (UK); host or cells: pooled human liver microsomes, ten donors
Procedure: as §1, §2, §3

CYP3A4 [8] = target: T5, CYP3A4; assay: Kinetic analysis of STS metabolism by recombinant CYP3A4; assay type: in vitro ADME
Procedure: The CYP isoform-specific probe reactions used were phenacetin O-deethylation (for CYP1A2), coumarin 7-hydroxylation (for CYP2A6), tolbutamide 4-hydroxylation (for CYP2C9), metoprolol α-hydroxylation (for CYP2D6), chlorzoxazone 6-hydroxylation (for CYP2E1), S-mephenytoin 4-hydroxylation (for CYP2C19), and midazolam 1-hydroxylation (for CYP3A4). […] Each reaction was initiated by addition of 1 mg/mL NADPH. The final incubations were performed in a shaking water bath at 37 °C for 30 min. The incubations were performed in triple, and the incubation conditions specific to each CYP isoform were within the linear range for the velocity of the reaction (incubation time as well as substrate and protein concentrations). […]
The incubation conditions consisted of substrate probe, HLMs (0.5 mg/mL) or CYP isoforms (10 pmol), and 0.1 M sodium phosphate buffer (pH 7.4) in a total volume of 0.2 mL. […] All values were expressed as the mean ± standard deviation (SD). […]
as §3

CYP2D6 = target: T6, CYP2D6 (Homo sapiens, UniProt P10635); assay: Inhibition of metoprolol α-hydroxylation in HLMs; assay type: in vitro ADME
T6 construct: tissue Cypex Ltd. (UK); host or cells: pooled human liver microsomes, ten donors
T6 sequence (P10635 whole entry): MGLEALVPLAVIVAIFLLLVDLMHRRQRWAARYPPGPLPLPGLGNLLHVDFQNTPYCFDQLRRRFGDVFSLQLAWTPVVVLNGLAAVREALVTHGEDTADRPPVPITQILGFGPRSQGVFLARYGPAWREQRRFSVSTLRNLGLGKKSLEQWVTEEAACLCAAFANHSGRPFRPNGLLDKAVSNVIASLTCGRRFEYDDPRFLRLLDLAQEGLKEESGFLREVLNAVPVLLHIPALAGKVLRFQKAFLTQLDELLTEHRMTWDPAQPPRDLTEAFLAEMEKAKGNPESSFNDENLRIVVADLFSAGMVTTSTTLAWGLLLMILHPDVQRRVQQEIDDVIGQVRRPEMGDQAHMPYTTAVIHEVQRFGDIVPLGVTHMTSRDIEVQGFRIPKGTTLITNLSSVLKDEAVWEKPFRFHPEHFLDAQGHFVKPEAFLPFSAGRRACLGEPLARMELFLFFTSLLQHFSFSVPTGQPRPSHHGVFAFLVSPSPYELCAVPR
Procedure: as §1, §2, §3

CYP1A2 [9] = target: T3, CYP1A2; details: in vivo; cited from earlier work
[10] = Kinetic analysis of STS metabolism by human liver microsomes; assay type: in vitro ADME
Procedure: as §1
The incubation conditions consisted of substrate probe, HLMs (0.5 mg/mL) or CYP isoforms (10 pmol), and 0.1 M sodium phosphate buffer (pH 7.4) in a total volume of 0.2 mL. […] All values were expressed as the mean ± standard deviation (SD). The mean intrinsic clearance rate (CLint) for the in vitro incubation was estimated by Vmax/Km.
as §4

[11] = Effects of specific CYP inhibitors on metabolic clearance rate (MCR) of STS in HLMs; assay type: in vitro ADME, human; details: STS 10 µM, in the presence of KET 1 µM
CYP2A6 = target: T7, CYP2A6 (Homo sapiens, UniProt P11509); assay: Inhibition of coumarin 7-hydroxylation in HLMs; assay type: in vitro ADME
T7 construct: tissue Cypex Ltd. (UK); host or cells: pooled human liver microsomes, ten donors
T7 sequence (P11509 1-494): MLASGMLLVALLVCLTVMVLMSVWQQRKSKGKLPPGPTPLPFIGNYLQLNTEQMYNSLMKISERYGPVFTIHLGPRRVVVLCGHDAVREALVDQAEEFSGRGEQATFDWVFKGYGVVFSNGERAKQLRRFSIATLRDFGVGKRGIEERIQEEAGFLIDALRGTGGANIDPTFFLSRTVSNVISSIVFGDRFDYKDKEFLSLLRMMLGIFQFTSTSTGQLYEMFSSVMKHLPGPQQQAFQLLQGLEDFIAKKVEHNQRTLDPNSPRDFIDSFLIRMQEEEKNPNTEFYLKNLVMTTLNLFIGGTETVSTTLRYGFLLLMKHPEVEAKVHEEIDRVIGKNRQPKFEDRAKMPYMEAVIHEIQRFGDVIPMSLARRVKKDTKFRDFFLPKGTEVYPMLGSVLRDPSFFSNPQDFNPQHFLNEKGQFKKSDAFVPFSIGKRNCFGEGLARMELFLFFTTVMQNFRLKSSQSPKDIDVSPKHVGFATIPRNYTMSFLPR
Procedure: as §1, §2, §3

CYP2E1 [12] = target: T1, CYP2E1; assay: Inhibition of chlorzoxazone 6-hydroxylation in HLMs; assay type: in vitro ADME
Procedure: as §1, §2, §3

[13] = rats, intravenous 2 mg/kg, cited from earlier work
CYP3A4 [14] = target: T5, CYP3A4; assay: MCR of STS with recombinant CYP3A4 under inhibition by KET; assay type: in vitro ADME; details: KET 1 µM
[15] = classification of Kong et al., read-out: potency class of inhibitor by IC50

Cc1ncsc1CCCl [CHL, chlormethiazole hydrochloride]
Ki (CYP2E1 [1]): 12 µM

Cc1coc2c1C(=O)C(=O)c1c-2ccc2c1CCCC2(C)C [tanshinone IIA]
Ki (human CYP1A2 isoform): 0.05 µM | inhibition of CYP2C9 (CYP2C9 [2]): medium competitive inhibitor | Ki (CYP1A2 [3]): 1.45 µM

Cc1c(S(=O)(=O)O)oc2c1C(=O)C(=O)c1c-2ccc2c1CCCC2(C)C [STS, sodium tanshinone IIA sulfonate]
inhibitory effect on CYP2C19 activity (CYP2C19; STS 1–100 µM, HLMs): minimal; also recorded: negligible | IC50 (CYP2C19; STS 1–100 µM, S-mephenytoin 100 µM, HLMs, read-out: IC50): > 100 µM | IC50 (CYP2C19; [15]): ≥ 50 µM | inhibitory effect on CYP2C9 activity (CYP2C9 [4]; STS 1–100 µM, HLMs): minimal; also recorded: negligible | IC50 (CYP2C9 [4]; STS 1–100 µM, tolbutamide 100 µM, HLMs, read-out: IC50): > 100 µM | IC50 (CYP2C9 [4]; [15]): ≥ 50 µM | plasma concentration ([5]; 4 h after the injection ref 15, 16): ≤ 20 ng/mL | t1/2 ([5]; after injection ref 15, 16): < 54 min | Ki fold higher than that of KET (CYP3A4 [6]; HLMs, versus reported KET value): approximately 212 fold | IC50 (CYP3A4 [6]; STS 1–100 µM, midazolam 5 µM, HLMs, brackets = 95 % confidence interval, read-out: IC50): 6.4 µM and 6.38 µM | IC50 (CYP3A4 [6]; [15]): ≤ 10 µM | type of inhibition (CYP3A4 [6]; midazolam 1-hydroxylation in HLMs, Dixon / Lineweaver–Burk plots): competitive type of inhibition; also recorded: full competitive inhibition | IC50 fold higher than that of KET (CYP3A4 [6]; midazolam 1-hydroxylation, HLMs, versus reported KET values): 26.6–79.7 fold | Ki (CYP3A4 [6]; midazolam 5–50 µM, STS 0–100 µM, HLMs, competitive model, brackets = 95 % confidence interval): 3.18 µM | inhibitory effect on CYP1A2 activity (CYP1A2 [7]; STS 1–100 µM, HLMs): minimal; also recorded: negligible; also recorded: not an inhibitor | IC50 (CYP1A2 [7]; STS 1–100 µM, phenacetin 10 µM, HLMs, read-out: IC50): > 100 µM | IC50 (CYP1A2 [7]; [15]): ≥ 50 µM | Vmax (CYP3A4 [8]; Fig. 2b, CYP3A4, printed in picture): 6.8 | in vitro CLint (CYP3A4 [8]; STS with CYP3A4, Vmax/Km): 0.902 mL/nmol P450/min | inhibitory effect on CYP2D6 activity (CYP2D6; STS 1–100 µM, HLMs): minimal; also recorded: negligible | IC50 (CYP2D6; STS 1–100 µM, metoprolol […], HLMs, read-out: IC50): > 100 µM | IC50 (CYP2D6; [15]): ≥ 50 µM | increase of CYP1A2 activity (CYP1A2 [9]): 41.1% | Vmax ([10]; Fig. 2a, human liver microsomes): 0.9 | Vmax ([10]; STS metabolism, HLMs 0.5 mg/mL, mean ± SD): 0.9 ± 0.1 nmol/mg protein/min | Km ([10]; human, human liver microsomes, pH 7.4): 54.8 ± 14.6 µM | microsomal CLint ([10]; human, human liver microsomes, pH 7.4, read-out: in vitro CLint): 16 µL/min/mg | MCR of STS, of control [11]: 37.4% | inhibitory effect on CYP2A6 activity (CYP2A6; STS 1–100 µM, HLMs): minimal; also recorded: negligible | IC50 (CYP2A6; STS 1–100 µM, coumarin 5 µM, HLMs, read-out: IC50): > 100 µM | IC50 (CYP2A6; [15]): ≥ 50 µM | inhibitory effect on CYP2E1 activity (CYP2E1 [12]; STS 1–100 µM, HLMs): minimal; also recorded: negligible | IC50 (CYP2E1 [12]; STS 1–100 µM, chlorzoxazone 40 µM, HLMs, read-out: IC50): > 100 µM | IC50 (CYP2E1 [12]; [15]): ≥ 50 µM | maximal STS concentration in liver ([13]; 5 min after administration ref 15, 16): > 10 µg/mL | detection in other tissues ([13]; 2 h after administration, other tissues ref 15, 16): hardly detected | time after administration at which STS could be determined ([13]; kidney ref 15, 16): 4 h | time after administration at which STS could be determined ([13]; liver ref 15, 16): 12 h | MCR of STS, of control value (CYP3A4 [14]; recombinant CYP3A4, STS 10 µM): 58.4% | MCR of STS, of control value (CYP3A4 [14]; recombinant CYP3A4, STS 50 µM): 29.4%
